According to US11230525B2, “Organic sulfur compound, method for preparing same, and pharmaceutical composition for preventing or treating cancer or an inflammatory disease, containing same as active ingredient” (SOOKMYUNG WOMENS UNIVERSITY INDUSTRY-ACADEMIC COOPERATION …, priority 2016, dated 2022):

Key:
HDAC 8 = target: T1, HDAC 8 (Homo sapiens, UniProt Q9BY41); experiment: HDAC enzyme fluorescence assay, HDAC 8; type: biochemical; design: Inhibitory activity (%) HDAC 8: concentration or dose not given beside the values; details: (HDAC inhibitory activity of example compound/HDAC inhibitory activity of SAHA) × 100
T1 sequence (Q9BY41 1-377): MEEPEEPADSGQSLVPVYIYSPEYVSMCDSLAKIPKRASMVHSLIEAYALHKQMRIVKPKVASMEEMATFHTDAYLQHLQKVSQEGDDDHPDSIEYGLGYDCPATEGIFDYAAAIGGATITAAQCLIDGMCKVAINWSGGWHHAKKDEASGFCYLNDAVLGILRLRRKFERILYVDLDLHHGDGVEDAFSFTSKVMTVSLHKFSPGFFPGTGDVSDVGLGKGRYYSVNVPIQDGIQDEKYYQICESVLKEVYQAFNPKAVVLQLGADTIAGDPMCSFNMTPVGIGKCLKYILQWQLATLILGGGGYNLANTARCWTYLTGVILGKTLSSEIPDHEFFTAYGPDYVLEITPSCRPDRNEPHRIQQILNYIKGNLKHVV
Experimental: Particularly, HDAC enzyme analysis was performed based on a uniform fluorescence emission assay. First, the compounds of examples of the present invention or comparative example 1 were diluted at different concentrations, which were treated to the analysis buffer containing 25 mM HEPES (pH 8.0), 137 mM NaCl, 1 mM MgCl2 and 2.7 mM KCL, followed by culture of the recombinant HDAC enzyme. 10 minutes later, Boc-Lys(acetyl)-AMC, the fluorescence inducing substrate, was added thereto, followed by further culture at 37° C. At this time, the concentration of the fluorescence inducing substrate and the culture time were adjusted according to the isotypes of the HDAC enzyme. The reaction was terminated by treating trypsin at room temperature for 20 minutes. The fluorescence intensity was measured using a fluorescence analyzer at an excitation wavelength of 380 nm and an emission wavelength of 460 nm, respectively. The inhibition rate was calculated from the measured fluorescence intensity of each well with comparing to that of the control well. IC50 of the compound was calculated by analyzing the dose-reaction inhibition curve.
The HDAC 8 inhibitory activity was presented as percentage of relative activity by the inhibitory activity of SAHA (Vorinostat) used as a reference compound.

[1] = tested on: renal cancer cell line (ACHN); experiment: Cancer proliferation inhibitory activity (SRB, GI50), ACHN; type: cell-based; details: Homo sapiens, 48 hours
Excerpt: (§1) Particularly, the cancer proliferation inhibitory activity of the compounds of comparative examples (Ajoene and the compounds isosteric to Ajoene wherein R1 is allyl or benzyl) and the compounds of examples of the present invention (the compounds not isosteric to Ajoene wherein R^1 is phenyl) was investigated in human cancer cell lines (renal cancer cell line (ACHN), breast cancer cell line (MDA-MB-231), colorectal cancer cell line (HCT-15), prostate cancer cell line (PC-3), gastric cancer cell line (NUGC-3) and lung cancer cell line (NCl-H23)).
(§2) At this time, the cancer cell lines (renal cancer cell line (ACHN), breast cancer cell line (MDA-MB-231), colorectal cancer cell line (HCT-15), prostate cancer cell line (PC-3), gastric cancer cell line (NUGC-3) and lung cancer cell line (NCl-H23)) above were purchased from American Type Culture Collection (Manassas, Va., USA). Cells were cultured in RPMI 1640 supplemented with 10% fetal bovine serum, which were maintained 37° C. under 5% CO2 wet atmosphere. The cells were distributed in a 96-well plate, which was not treated (treated only with 0.1% DMSO) or treated with the compounds of examples of the present (0.1 μM to 10 μM). 48 hours later, the cells were fixed in 50% trichloroacetic acid, followed by staining with 1% acetic acid containing 0.4% sulphorodamine B dissolved therein. The non-conjugated dye was removed by washing with 1% acetic acid, and the protein conjugated dye was extracted with 10 mM Tris base (pH 10.5). Then, OD540 was measured with VersaMax microplate reader (Molecular devices, Sunnyvale, Calif., USA). GI50 was calculated by using GraphPad Prism software (GraphPad Software, Inc., San Diego, Calif., USA).
(§3) Based on the results obtained in experimental example 1-1 above, the derivatives wherein R^1 is phenyl were additionally synthesized. The cancer proliferation inhibitory activity of the derivatives was evaluated by the same manner as described in experimental example 1-1.

[2] = tested on: gastric cancer cell line (NUGC-3); experiment: Cancer proliferation inhibitory activity (SRB, GI50), NUGC-3; type: cell-based; details: Homo sapiens, 48 hours
Excerpt: as §1, §2, §3

[3] = tested on: lung cancer cell line (NCl-H23); experiment: Cancer proliferation inhibitory activity (SRB, GI50), NCI-H23; type: cell-based; details: Homo sapiens, 48 hours
Excerpt: as §1, §2, §3

[4] = tested on: prostate cancer cell line (PC-3); experiment: Cancer proliferation inhibitory activity (SRB, GI50), PC-3; type: cell-based; details: Homo sapiens, 48 hours
Excerpt: as §1, §2, §3

[5] = tested on: colorectal cancer cell line (HCT-15); experiment: Cancer proliferation inhibitory activity (SRB, GI50), HCT-15; type: cell-based; details: Homo sapiens, 48 hours
Excerpt: as §1, §2, §3

[6] = tested on: breast cancer cell line (MDA-MB-231); experiment: Cancer proliferation inhibitory activity (SRB, GI50), MDA-MB-231; type: cell-based; details: Homo sapiens, 48 hours
Excerpt: as §1, §2, §3

| Inhibitory activity (%) HDAC 8 (HDAC 8) [%] | GI50 [1] [nM] | GI50 [2] [nM] | GI50 [3] [nM] | GI50 [4] [nM] | GI50 [5] [nM] | GI50 [6] [nM] | SMILES |
| --- | --- | --- | --- | --- | --- | --- | --- |
| 111.7 | 170 | 240 | 270 | 290 | 250 | 160 | COc1ccc([S+]([O-])C/C=C/SSCc2ccc(F)cc2)cc1 (stereo not drawn) [Example 33, (E)-1-(4-fluorobenzyl)-2-(3-(4-methoxyphenylsulfinyl)prop-1-enyl)disulfane] |
| 43.8 | 3900 | 2930 | 2800 | 4740 | 2640 | 2150 | CCCSS/C=C/C[S+]([O-])c1ccccc1 (stereo not drawn) [Example 3, (E)-1-(3-(phenylsulfinyl)prop-1-enyl)-2-propyldisulfane] |
| 39.8 | 3860 | 4620 | 3910 | 4380 | 6610 | 5620 | C=CCSS/C=C/C[S+]([O-])c1ccc(OC)cc1 (stereo not drawn) [Example 27, (E)-1-allyl-2-(3-(4-methoxyphenylsulfinyl)prop-1-enyl)disulfane] |
| 74.4 | 1220 | 1160 | 2000 | 1300 | 1670 | 1560 | [O-][S+](C/C=C/SSCc1ccc(Cl)cc1)c1ccccc1 (stereo not drawn) [Example 11, (E)-1-(4-chlorobenzyl)-2-(3-(phenylsulfinyl)prop-1-enyl)disulfane] |
| 107.2 | 880 | 1080 | 970 | 1050 | 880 | 1160 | COc1ccc([S+]([O-])C/C=C/SSCc2ccc(Cl)cc2)cc1 (stereo not drawn) [Example 35, (E)-1-(4-chlorobenzyl)-2-(3-(4-methoxyphenylsulfinyl)prop-1-enyl)disulfane] |
| 161.9 | > 10000 | 3220 | > 10000 | 6670 | 7250 | > 10000 | COc1cccc([S+]([O-])C/C=C\SSCc2ccc(Cl)c(Cl)c2)c1 (stereo not drawn) [Example 26, (Z)-1-(3,4-dichlorobenzyl)-2-(3-(3-methoxyphenylsulfinyl)prop-1-enyl)disulfane] |
| 69.9 | 1650 | 2040 | 1410 | 2410 | 1480 | 2200 | CCCSS/C=C/C[S+]([O-])c1ccc(OC)cc1 (stereo not drawn) [Example 29, (E)-1-(3-(4-methoxyphenylsulfinyl)prop-1-enyl)-2-propyldisulfane] |
| 73.8 | 2720 | 1660 | 2030 | 4240 | 2330 | 3580 | COc1ccc(CSS/C=C\C[S+]([O-])c2ccccc2)cc1 (stereo not drawn) [Example 10, (Z)-1-(4-methoxybenzyl)-2-(3-(phenylsulfinyl)prop-1-enyl)disulfane] |
| 37.1 | 7110 | 6840 | 7690 | 3890 | 10400 | 3240 | [O-][S+](C/C=C/SSCc1ccc(F)cc1)c1ccccc1 (stereo not drawn) [Example 7, (E)-1-(4-fluorobenzyl)-2-(3-(phenylsulfinyl)prop-1-enyl)disulfane] |
